As usually defined, the IC50 is the concentration that inhibits the measured activity by half. As a reminder, the % Inhibition is how much of the control response was suppressed. High values mean a strong effect, low ones a weak effect. Broadly, the inhibition is the relative decrease from the control value, in per cent. A low value points to little suppression.

Nine compounds from patent publication US12577267B2, “Pyrimidine compounds for use as MAP4K1 inhibitors” (GLENMARK SPECIALITY S.A., priority 2021, dated 2026) can be followed below.

Counter-ions that a name gives are not always drawn. Like-named read-outs stand apart in the source and are kept apart here.

The subject of one experiment is CT26 tumor. Description: Anti-tumor efficacy on a syngeneic mouse colon tumor model of CT26. The experiment is classed as in vivo, BALB/c mice. Here is the method: Evaluation of Anti-Tumor Efficacy of Example 2 and Example 30 on a Syngeneic Mouse Colon Tumor Model of CT26.
Healthy female BALB/c mice (7 to 9 weeks old and 15 to […]) were obtained from Glenmark animal facility. Animals were group housed in polypropylene cages at a controlled temperature of 20-22° C. with a light/dark cycle of 12/12 hours. They were maintained on an ad lib standard mouse pellet diet and water and all animal experiments were performed as per protocols approved by the Institutional Animal Ethics Committee (IAEC).
CT-26 cell line was obtained from American type culture (ATCC® CRL-2638™). Cells were revived in T-flask (passage 5) with complete RPMI-1640 media and incubated at 37° C. in 5% CO2, 80% relative humidity. Cells were re-suspended, pooled and split into 1:10 ratio per flask, maintained for 3 passages and passage 8 was used for cell inoculation into animals.
The right flank region of mice was shaved by electronic shaver. Required number of CT26 cells (10 million per mL of serum free media) received on ice from cell culture lab. The mice were anesthetized by isoflurane with O2 (oxygen flow meter to 1-2 liter/min and turn isoflurane vaporizer dial to 2-3%). The cells were inoculated into the right flank region of mice at cell concentration of 1 million cells/100 μL/mouse. The inoculated mice were housed in the animal room with daily observation for any undue clinical signs.
On day 10 after cell inoculation, mice were randomized based on tumor volume and grouped into different treatment groups. The mice with tumor volume range of 57 mm^3 to 119 mm^3 were included in efficacy study. Tumor volume was measured using digital vernier caliper.
The volume calculations were obtained using the formula V(mm^3)=[L×(W×W)]×0.52 • V is tumor volume, L is tumor length and W is tumor width
Compound Preparation and Administration
0.5% v/v Tween 80 and 0.5% w/v Methyl Cellulose in distilled water was used as vehicle for oral formulation. Example 2 and Example 30 were weighed and a stock suspension of 50 mg/kg/10 mL was prepared in a mortar and pestle by adding Tween 80 (0.5% v/v), Methyl cellulose (MC, 0.5% w/v). […] The body weights were recorded on daily basis and the dosing time was maintained throughout the study. […]
Tumor volume was measured in a blinded manner throughout the study. […] The % TGI was calculated by following the formula: [1−{(Tt−T0)/(Ct−C0)}]×100. • Tt=Tumor volume of treatment group on day of tumor volume • T0=Tumor volume of treatment group on day of randomization • Ct=Tumor volume of vehicle control group on day of tumor volume • C0=Tumor volume of control group on day of randomization Sacrifice Plan […]
Tumor volume data was statistically analyzed using Two-way ANOVA followed by Bonferroni's Multiple Comparison Test. […]

Another experiment deals with MAP4K-1 enzyme (Homo sapiens, UniProt Q92918). The experiment in a line: FRET one step binding assay (tracer displacement). As to conditions: for % Inhibition at 1 μM / inhibition at 1 µM: 1 μM compound; for % Inhibition at 10 μM / inhibition at 10 µM: 10 μM compound. The essentials: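 TR-FRET tracer-displacement binding with 5 nM GST-tagged MAP4K-1 and 2 nM Eu-anti-GST antibody in 50 mM HEPES pH 7.5, 10 mM MgCl2, 1 mM EGTA, 0.01% Brij-35, 3% DMSO final. Compound pre-incubated 15 min on ice, then 1 h at room temperature after tracer addition. IC50 from nonlinear regression of percent-of-control dose-response.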
Chain of MAP4K-1 enzyme (Q92918 whole entry): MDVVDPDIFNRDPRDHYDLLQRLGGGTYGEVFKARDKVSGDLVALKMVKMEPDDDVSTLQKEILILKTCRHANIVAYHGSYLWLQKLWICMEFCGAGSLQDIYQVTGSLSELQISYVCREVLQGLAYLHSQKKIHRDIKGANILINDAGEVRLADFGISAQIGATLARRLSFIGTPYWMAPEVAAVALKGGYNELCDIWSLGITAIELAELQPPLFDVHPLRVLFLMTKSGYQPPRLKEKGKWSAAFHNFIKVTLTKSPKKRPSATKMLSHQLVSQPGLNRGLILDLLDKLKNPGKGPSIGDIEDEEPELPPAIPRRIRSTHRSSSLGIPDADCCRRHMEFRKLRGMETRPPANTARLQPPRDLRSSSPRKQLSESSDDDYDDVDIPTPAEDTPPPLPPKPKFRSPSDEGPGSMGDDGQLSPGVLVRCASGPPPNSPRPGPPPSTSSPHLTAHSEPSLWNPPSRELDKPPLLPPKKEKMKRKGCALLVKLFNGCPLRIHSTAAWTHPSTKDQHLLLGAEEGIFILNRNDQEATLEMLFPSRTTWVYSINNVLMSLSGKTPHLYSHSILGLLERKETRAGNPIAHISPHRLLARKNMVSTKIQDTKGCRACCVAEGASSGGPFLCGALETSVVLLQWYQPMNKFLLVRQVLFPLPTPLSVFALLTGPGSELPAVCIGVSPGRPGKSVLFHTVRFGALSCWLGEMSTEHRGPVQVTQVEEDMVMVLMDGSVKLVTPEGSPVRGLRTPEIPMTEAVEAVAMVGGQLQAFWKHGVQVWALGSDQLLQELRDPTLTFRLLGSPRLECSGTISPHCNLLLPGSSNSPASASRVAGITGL

Regarding `COc1cc2c(cc1Nc1ncc(Cl)c(Nc3ccc(OS(=O)(=O)F)cc3P(C)(C)=O)n1)C(C)N(C)CC2` (single isomer, unassigned; isomer 2) [Example 30, 4-((5-Chloro-2-((6-methoxy-1,2-dimethyl-1,2,3,4-tetrahydroisoquinolin-7-yl)amino)pyrimidin-4-yl)amino)-3-(dimethylphosphoryl)phenyl sulfofluoridate dihydrochloride (Isomer 2)], the “Tumor growth inhibition (TGI)” value in the experiment on CT26 tumor (10 mg/kg p.o. QD, day 25, vs vehicle group) was found to be 37%; with CT26 tumor (50 mg/kg p.o. QD, day 25, vs vehicle group) it was 62%. This compound yielded an IC50 at MAP4K-1 enzyme of under 50 nM. For the same compound, the “% Inhibition at 1 μM” value at MAP4K-1 enzyme (1 µM) amounted to 79.12%. Further, the “% Inhibition at 10 μM” value on MAP4K-1 enzyme (10 µM) is given as 82.70%.
Turning to `COc1cc2c(cc1Nc1ncc(Cl)c(Nc3ccc(OS(=O)(=O)F)cc3P(C)(C)=O)n1)CN(C)CC2` [Example 2, 4-((5-chloro-2-((6-methoxy-2-methyl-1,2,3,4-tetrahydroisoquinolin-7-yl)amino)pyrimidin-4-yl)amino)-3-(dimethylphosphoryl)phenyl sulfofluoridate dihydrochloride], in the experiment with CT26 tumor (10 mg/kg p.o. QD, day 24, vs vehicle group), the “Tumor growth inhibition (TGI)” value came to 40%. The “Tumor growth inhibition (TGI)” value with CT26 tumor (50 mg/kg p.o. QD, day 24, vs vehicle group) is on record as 61%. On MAP4K-1 enzyme, 1 µM produced 86% inhibition and 10 µM produced 82.1% inhibition. The IC50 on MAP4K-1 enzyme (IC50 (nM)) was under 50 nM.
At MAP4K-1 enzyme, `CN1CCc2cc(O)c(Nc3ncc(Cl)c(Nc4ccc(OS(=O)(=O)F)cc4P(C)(C)=O)n3)cc2C1` [Example 61, 4-((5-Chloro-2-((6-hydroxy-2-methyl-1,2,3,4-tetrahydroisoquinolin-7-yl)amino)pyrimidin-4-yl)amino)-3-(dimethylphosphoryl)phenylsulfofluoridate dihydrochloride] yielded an inhibition at 1 µM of 89.6% and an inhibition at 10 µM of 89.7%. In addition, the IC50 at MAP4K-1 enzyme (IC50 (nM)) is under 50 nM.
At MAP4K-1 enzyme, `COc1cc2c(cc1Nc1ncc(Cl)c(Nc3ccc(O[C@H]4CCOC4)cc3P(C)(C)=O)n1)CN(C)CC2` [Example 48, (S)-(2-((5-Chloro-2-((6-methoxy-2-methyl-1,2,3,4-tetrahydroisoquinolin-7-yl)amino)pyrimidin-4-yl)amino)-5-((tetrahydrofuran-3-yl)oxy)phenyl)dimethylphosphineoxide] registered an inhibition at 1 µM of 84.2% and an inhibition at 10 µM of 81.4%. For the same compound, the IC50 on MAP4K-1 enzyme (read-out: IC50) is under 50 nM.
At MAP4K-1 enzyme, `[2H]C([2H])([2H])Oc1cc2c(cc1Nc1ncc(Cl)c(Nc3ccc(OS(=O)(=O)F)cc3P(C)(C)=O)n1)CN(C([2H])([2H])[2H])CC2` [Example 6, 4-((5-Chloro-2-((6-methoxy-d3)-2-(methyl-d3)-1,2,3,4-tetrahydroisoquinolin-7-yl)amino)pyrimidin-4-yl)amino)-3-(dimethylphosphoryl)phenyl sulfurofluoridate dihydrochloride] displayed an inhibition at 1 µM of 80% and an inhibition at 10 µM of 82%. Moreover, on MAP4K-1 enzyme (IC50 (nM)), the 50% inhibitory concentration (IC50) was under 50 nM.
At MAP4K-1 enzyme, `COc1cc2c(cc1Nc1ncc(Cl)c(Nc3ccc(C(F)(F)F)cc3P(C)(C)=O)n1)CN(C)CC2` [Example 55, (2-((5-Chloro-2-((6-methoxy-2-methyl-1,2,3,4-tetrahydroisoquinolin-7-yl)amino)pyrimidin-4-yl)amino)-5-(trifluoromethyl)phenyl) dimethylphosphine oxide] returned an inhibition at 1 µM of 94.6% and an inhibition at 10 µM of 95.3%. For the same compound, at MAP4K-1 enzyme (read-out: IC50), the half-inhibitory concentration (IC50) is under 50 nM.
Take `COc1cc2c(cc1Nc1ncc(Cl)c(Nc3ccc(OS(=O)(=O)F)cc3P(C)(C)=O)n1)CN(CC(F)(F)F)CC2.Cl.Cl` [Example 7, 4-((5-Chloro-2-((6-methoxy-2-(2,2,2-trifluoroethyl)-1,2,3,4-tetrahydroisoquinolin-7-yl)amino)pyrimidin-4-yl)amino)-3-(dimethyllphosphoryl)phenyl sulfurofluoridate dihydrochloride]: on MAP4K-1 enzyme, the “% Inhibition at 1 μM” value was 37.71% and the “% Inhibition at 10 μM” value is 69.74%.
Turning to `COc1cc2c(cc1Nc1ncc(Cl)c(Nc3ccc(OS(=O)(=O)F)cc3P(C)(C)=O)n1)CN(C)C(C)C2` (single isomer, unassigned; isomer 2) [Example 34, 4-((5-Chloro-2-((6-methoxy-2,3-dimethyl-1,2,3,4-tetrahydroisoquinolin-7-yl)amino)pyrimidin-4-yl)amino)-3-(dimethylphosphoryl)phenyl sulfofluoridate dihydrochloride (Isomer 2)], the half-maximal inhibitory concentration (IC50) on MAP4K-1 enzyme was under 50 nM. On MAP4K-1 enzyme (1 µM), the “% Inhibition at 1 μM” value turned out to be 84.26%. Also, the “% Inhibition at 10 μM” value at MAP4K-1 enzyme (10 µM) turned out to be 86.64%.
In the case of `COc1cc2c(cc1Nc1ncc(Cl)c(Nc3c(F)cc(OS(=O)(=O)F)cc3P(C)(C)=O)n1)CN(C)CC2` [Example 14, 4-((5-Chloro-2-((6-methoxy-2-methyl-1,2,3,4-tetrahydroisoquinolin-7-yl)amino)pyrimidin-4-yl)amino)-3-(dimethylphosphoryl)-5-fluorophenylsulfurofluoridate dihydrochloride], on MAP4K-1 enzyme, the inhibition at 1 µM was found to be 89.7% and the inhibition at 10 µM was 93.3%. Further, the half-maximal inhibitory concentration (IC50) at MAP4K-1 enzyme (IC50 (nM)) was under 50 nM.
